# Data as given in patent US8431596B2 (Cancer Research Technology Limited, priority 2007, dated 2013).
# Target: T1, AXL (human catalytic domain) (Homo sapiens, UniProt P30530)
# T1 construct: purchased Upstate Ltd. 14-512
# T1 sequence (P30530 473-894): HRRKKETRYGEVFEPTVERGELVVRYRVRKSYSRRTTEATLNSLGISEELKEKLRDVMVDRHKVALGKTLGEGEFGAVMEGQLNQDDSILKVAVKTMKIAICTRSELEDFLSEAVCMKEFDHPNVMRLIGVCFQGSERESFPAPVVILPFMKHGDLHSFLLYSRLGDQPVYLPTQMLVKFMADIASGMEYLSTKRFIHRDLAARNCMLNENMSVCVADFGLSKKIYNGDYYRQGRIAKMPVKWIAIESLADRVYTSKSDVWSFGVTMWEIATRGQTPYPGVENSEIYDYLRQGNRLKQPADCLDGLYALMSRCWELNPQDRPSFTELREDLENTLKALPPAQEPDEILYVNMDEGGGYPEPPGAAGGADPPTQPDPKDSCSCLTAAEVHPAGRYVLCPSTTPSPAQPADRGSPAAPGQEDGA
# Test: AXL (human catalytic domain) Enzyme Activity Assay (IMAP fluorescence polarisation)
# Format: biochemical
# Method in brief: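 IMAP FP readout (Ex485/Em535, after overnight binding) measured inhibition of the human AXL catalytic domain (aa473-894, 15 nM final) acting on 100 nM 5FAM-CSK-tide at 150 μM ATP, equal to KM. Reactions ran 60 min at room temperature in pH 7.0 HEPES buffer; IC50 from 10-point curves.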
# [1] = first data set, recombinant AXL isoform 1 aa473-894, 150 μM ATP
# [2] = further data set (WW-001 through WW-169, XX-001 through XX-469, YY-001 through YY-016, ZZ-001 through ZZ-003), 150 μM ATP
SMILES,IC50 [1] [nM],IC50 [2] [nM]
CC(Oc1ccc(Nc2nc3cccc(-c4ccc5c(c4)OCCO5)n3n2)cc1)C(N)=O (stereo not drawn) [XX-072],< 1000,100 to 1000
NC(=O)COc1ccc(Nc2nc3cccc(-c4ccc5c(c4)OCCO5)n3n2)cc1 [XX-073],< 1000,100 to 1000
CN(C)CCOc1cccc(Nc2nc3cccc(-c4ccc5c(c4)OCCO5)n3n2)c1 [XX-074],< 1000,≤ 100
CCN(CC)CCOc1ccc(Nc2nc3cccc(-c4ccc5c(c4)OCCO5)n3n2)cc1 [XX-075],< 1000,≤ 100
CCN(CC)CCOc1cccc(Nc2nc3cccc(-c4ccc5c(c4)OCCO5)n3n2)c1 [XX-076],< 1000,≤ 100
CN1CCN(CCOc2ccc(Nc3nc4cccc(-c5ccc6c(c5)OCCO6)n4n3)cc2)CC1 [XX-077],< 1000,≤ 100
CN(C)CCOc1ncc(Nc2nc3cccc(-c4ccc5c(c4)OCCO5)n3n2)cn1 [XX-078],< 1000,100 to 1000
CN(C)CCOc1cc(Nc2nc3cccc(-c4ccc5c(c4)OCCO5)n3n2)ccn1 [XX-079],< 1000,≤ 100
CN(C)CCNC(=O)c1cccc(Nc2nc3cccc(-c4ccc5c(c4)OCCO5)n3n2)c1 [XX-080],< 1000,≤ 100
CNCCOc1cccc(Nc2nc3cccc(-c4ccc5c(c4)OCCO5)n3n2)c1 [XX-081],< 1000,≤ 100
CN(C)C/C=C/c1ccc(Nc2nc3cccc(-c4ccc5c(c4)OCCO5)n3n2)cc1 [XX-082],< 1000,≤ 100
CN(C)C/C=C/c1cccc(Nc2nc3cccc(-c4ccc5c(c4)OCCO5)n3n2)c1 [XX-083],< 1000,≤ 100
CN(C)CCNC(=O)c1ccc(Nc2nc3cccc(-c4ccc5occc5c4)n3n2)cc1 [XX-084],< 1000,≤ 100
CN(C)CCNC(=O)c1cccc(Nc2nc3cccc(-c4ccc5occc5c4)n3n2)c1 [XX-085],< 1000,≤ 100
CNCCOc1cccc(Nc2nc3cccc(-c4ccc5occc5c4)n3n2)c1 [XX-086],< 1000,≤ 100
CN(C)CCNC(=O)c1ccc(Nc2nc3cccc(-c4ccc5c(c4)OCO5)n3n2)cc1 [XX-087],< 1000,100 to 1000
CNCCOc1cccc(Nc2nc3cccc(-c4ccc5c(c4)OCO5)n3n2)c1 [XX-088],< 1000,100 to 1000
CCOC(=O)c1cccc(-c2cccc3nc(Nc4ccc(OCCN5CCCC5)cc4)nn23)c1 [XX-089],–,1000 to 10000
"OCc1cccc(-c2cccc3nc(Nc4ccc(OCCN5CCCC5)cc4)nn23)c1 [XX-090, (3-{2-[4-(2-Pyrrolidin-1-yl-ethoxy)-phenylamino]-[1,2,4]triazolo[1,5-a]pyridin-5-yl}-phenyl)-methanol]",–,≤ 100
"CS(=O)(=O)OCCn1cc(-c2cccc3nc(Nc4ccc(OCCN5CCCC5)cc4)nn23)cn1 [XX-091, Methanesulfonic acid 2-(4-{2-[4-(2-pyrrolidin-1-yl-ethoxy)-phenylamino]-[1,2,4]triazolo[1,5-a]pyridin-5-yl}-pyrazol-1-yl)-ethyl ester]",–,100 to 1000
"CC(C)(C)CNC(=O)Cn1cc(-c2cccc3nc(Nc4ccc(OCCN5CCCC5)cc4)nn23)cn1 [XX-092, N-(2,2-Dimethyl-propyl)-2-(4-{2-[4-(2-pyrrolidin-1-yl-ethoxy)-phenylamino]-[1,2,4]triazolo[1,5-a]pyridin-5-yl}-pyrazol-1-yl)-acetamide]",–,1000 to 10000
CN1CCOc2cc(-c3cccc4nc(Nc5ccc(OCCN6CCCC6)cc5)nn34)ccc21 [XX-093],–,100 to 1000
Cc1cc(-c2cccc3nc(Nc4ccc(OCCN5CCCC5)cc4)nn23)ccc1N(C)C [XX-094],–,100 to 1000

SMILES,IC50 [1] [nM],IC50 [2] [nM]
COc1cc(Nc2nc3cccc(-c4ccc5c(c4)OCCN5C)n3n2)ccc1OCCN1CCCC1 [XX-095],–,100 to 1000
CCN(CC)CCOc1cccc(Nc2nc3cccc(-c4ccc5c(c4)OCCN5C)n3n2)c1 [XX-096],–,100 to 1000
c1cc(-c2ccc3c(c2)OCCO3)n2nc(Nc3cnc(OCCN4CCCC4)nc3)nc2c1 [XX-097],–,100 to 1000
c1cc(-c2ccc3c(c2)OCCO3)n2nc(Nc3cnc(OCCN4CCCCC4)nc3)nc2c1 [XX-098],–,1000 to 10000
c1cc(-c2ccc3c(c2)OCCO3)n2nc(Nc3ccnc(OCCN4CCCC4)c3)nc2c1 [XX-099],–,100 to 1000
c1cc(Nc2nc3cccc(-c4ccc5c(c4)OCCO5)n3n2)cc(OCCN2CCCC2)c1 [XX-100],–,100 to 1000
c1cc(-c2ccc3c(c2)OCCO3)n2nc(Nc3ccnc(OCCN4CCCCC4)c3)nc2c1 [XX-101],–,≤ 100
c1cc(-c2ccc3c(c2)OCCO3)n2nc(Nc3ccc(OCCN4CCCC4)nc3)nc2c1 [XX-102],–,100 to 1000
CNCCOc1ccc(Nc2nc3cccc(-c4ccc5c(c4)OCCO5)n3n2)cc1C [XX-103],–,100 to 1000
O=C(CCN1CCCC1)Nc1ccc(Nc2nc3cccc(-c4ccc5c(c4)OCCO5)n3n2)cc1 [XX-104],–,100 to 1000
c1cc(-c2ccc3c(c2)OCCO3)n2nc(Nc3ccc(NCCN4CCCC4)cc3)nc2c1 [XX-105],–,100 to 1000
c1cc(-c2ccc3c(c2)OCCO3)n2nc(Nc3ccc(OCCN4CCCCC4)nc3)nc2c1 [XX-106],–,100 to 1000
O=C(CN1CCCC1)Nc1cccc(Nc2nc3cccc(-c4ccc5c(c4)OCCO5)n3n2)c1 [XX-107],–,100 to 1000
NCCSc1ccc(Nc2nc3cccc(-c4ccc5c(c4)OCCO5)n3n2)cc1 [XX-108],–,≤ 100
O=C(CCN1CCCC1)Nc1cccc(Nc2nc3cccc(-c4ccc5c(c4)OCCO5)n3n2)c1 [XX-109],–,100 to 1000
O=C(NCCN1CCCC1)c1ccc(Nc2nc3cccc(-c4ccc5c(c4)OCCO5)n3n2)cc1 [XX-110],–,≤ 100
CN1CCN(C(=O)c2ccc(Nc3nc4cccc(-c5ccc6c(c5)OCCO6)n4n3)cc2)CC1 [XX-111],–,100 to 1000
COc1cc(Nc2nc3cccc(-c4ccc5c(c4)OCCO5)n3n2)ccc1OCCN(C)C [XX-112],–,100 to 1000
O=C(NCCN1CCCC1)c1cccc(Nc2nc3cccc(-c4ccc5c(c4)OCCO5)n3n2)c1 [XX-113],–,≤ 100
CN1CCN(C(=O)c2cccc(Nc3nc4cccc(-c5ccc6c(c5)OCCO6)n4n3)c2)CC1 [XX-114],–,100 to 1000
"CN(C)CCCc1cccc(Nc2nc3cccc(-c4ccc5c(c4)OCCO5)n3n2)c1 [XX-115, [5-(2,3-Dihydro-benzo[1,4]dioxin-6-yl)-[1,2,4]triazolo[1,5-a]pyridin-2-yl]-[3-(3-dimethylamino-propyl)-phenyl]-amine]",–,100 to 1000
c1cc(NCCN2CCCC2)cc(Nc2nc3cccc(-c4ccc5c(c4)OCCO5)n3n2)c1 [XX-116],–,100 to 1000
c1cc(NCCCN2CCCC2)cc(Nc2nc3cccc(-c4ccc5c(c4)OCCO5)n3n2)c1 [XX-117],–,100 to 1000

SMILES,IC50 [1] [nM],IC50 [2] [nM]
CC(CN)Oc1ccc(Nc2nc3cccc(-c4ccc5c(c4)OCCO5)n3n2)cc1 (stereo not drawn) [XX-118],–,≤ 100
CCN(CC)CC(=O)Nc1ccc(Nc2nc3cccc(-c4ccc5c(c4)OCCO5)n3n2)cc1 [XX-119],–,100 to 1000
CCN(CC)CC(=O)Nc1cccc(Nc2nc3cccc(-c4ccc5c(c4)OCCO5)n3n2)c1 [XX-120],–,100 to 1000
O=C(CN1CCCCC1)Nc1cccc(Nc2nc3cccc(-c4ccc5c(c4)OCCO5)n3n2)c1 [XX-121],–,100 to 1000
CCN(CC)CCC(=O)Nc1ccc(Nc2nc3cccc(-c4ccc5c(c4)OCCO5)n3n2)cc1 [XX-122],–,100 to 1000
O=C(CCN1CCCCC1)Nc1ccc(Nc2nc3cccc(-c4ccc5c(c4)OCCO5)n3n2)cc1 [XX-123],–,100 to 1000
CCN(CC)CCC(=O)Nc1cccc(Nc2nc3cccc(-c4ccc5c(c4)OCCO5)n3n2)c1 [XX-124],–,100 to 1000
O=C(CCN1CCCCC1)Nc1cccc(Nc2nc3cccc(-c4ccc5c(c4)OCCO5)n3n2)c1 [XX-125],–,100 to 1000
CN(C)CC(C)(C)Oc1ccc(Nc2nc3cccc(-c4ccc5c(c4)OCCO5)n3n2)cc1 [XX-126],–,100 to 1000
CCN(CC)CCNc1ccc(Nc2nc3cccc(-c4ccc5c(c4)OCCO5)n3n2)cc1 [XX-127],–,≤ 100
CCN(CC)CCNc1cccc(Nc2nc3cccc(-c4ccc5c(c4)OCCO5)n3n2)c1 [XX-128],–,100 to 1000
c1cc(-c2ccc3c(c2)OCCO3)n2nc(Nc3ccc(NCCCN4CCCCC4)cc3)nc2c1 [XX-129],–,100 to 1000
CCN(CC)CCCNc1cccc(Nc2nc3cccc(-c4ccc5c(c4)OCCO5)n3n2)c1 [XX-130],–,≤ 100
c1cc(NCCCN2CCCCC2)cc(Nc2nc3cccc(-c4ccc5c(c4)OCCO5)n3n2)c1 [XX-131],–,≤ 100
COc1ccc(Nc2nc3cccc(-c4ccc5c(c4)OCCO5)n3n2)cc1OCCN1CCCC1 [XX-132],–,≤ 100
Fc1cc(Nc2nc3cccc(-c4ccc5c(c4)OCCO5)n3n2)ccc1OCCN1CCCC1 [XX-133],–,≤ 100
Fc1ccc(Nc2nc3cccc(-c4ccc5c(c4)OCCO5)n3n2)cc1OCCN1CCCC1 [XX-134],–,100 to 1000
CC(C(=O)Nc1ccc(Nc2nc3cccc(-c4ccc5c(c4)OCCO5)n3n2)cc1)N1CCCC1 (stereo not drawn) [XX-135],–,100 to 1000
CC(C(=O)Nc1cccc(Nc2nc3cccc(-c4ccc5c(c4)OCCO5)n3n2)c1)N1CCCC1 (stereo not drawn) [XX-136],–,≤ 100
CN(C)CCCc1ccc(Nc2nc3cccc(-c4ccc5c(c4)OCCO5)n3n2)cc1 [XX-137],–,100 to 1000
C[C@@H](N)COc1ccc(Nc2nc3cccc(-c4ccc5c(c4)OCCO5)n3n2)cc1 [XX-138],–,100 to 1000
